Measured values: patent US20160166577A1, “TREATMENT OF PULMONARY FIBROSIS USING AN INHIBITOR OF CBP/CATENIN” (PRISM Pharma Co., Ltd., priority 2012, published 2016)

How the values were obtained:
[1] = system: bleomycin-induced pulmonary fibrosis; experiment: Bleomycin (BLM)-induced pulmonary fibrosis in mice; assay type: in vivo, C57BL/6 mice; conditions: for antifibrotic effect in six-week course of BLM-induced fibrosis: Example 3, 5 mg/kg/day over weeks 4-6, FIG. 4
Protocol: C57BL/6 mice received subcutaneous implants of an ALZET mini-osmotic pump (Durect Corp., California) that released BLM continuously (Example 1, […]; Example 2, 120 U/kg/mouse/day) for seven days (Day 1-Day 7), to induce lung fibrosis (Lab Invest. 50:487-488, 1984; Am. J. Resp. Cell Mol. Biol. 45:489-497, 2011). Bleomycin induces epithelial injury, causing increased pulmonary inflammation from Days 1-21, peaking at about Day 10 before subsiding. Fibrosis begins at about Day 8 and gradually increases until Day 28.
BLM mice treated with test compound received a second subcutaneous ALZET mini-osmotic pump (Durect Corp., California) that released Compound A continuously. Compound A, 4-(((6S,9S,9aS)-1-(benzylcarbamoyl)-2,9-dimethyl-4,7-dioxo-8-(quinolin-8-ylmethyl)octahydro-1H-pyrazino[2,1-c][1,2,4]triazin-6-yl)methyl)phenyl dihydrogen phosphate.
Ashcroft score (J. Clin. Pathol. 41:467-470, 1988) was calculated from tissue sections of right lung stained by H&E. Left lung homogenates were analyzed for soluble collagen content using SIRCOL Collagen Assay kit (Biocolor Ltd., Carrickfergus, UK).
In Example 1, Compound A was administered 5 mg/kg/day over days 15-28.
In Example 2, Compound A was administered 1 mg/kg/day over Days 1-28 (“whole”), Days 1-14 (“early”) or Days 15-28 (“late”). […] Bleo, bleomycin treatment alone; Bleo+Cmpd A whole, bleomycin plus Compound A administered throughout 4 week period; Bleo+early 2w, bleomycin plus Compound A administered over weeks 1-2; Bleo+late 2w, bleomycin plus Compound A administered over weeks 3-4.
In Example 3, a six-week rather than four-week course of BLM-induced fibrosis was studied. In this example, either Compound A (5 mg/kg/day) or ICG-001 (5 mg/kg/day), another β-catenin inhibitor, was administered to BLM-treated mice over weeks 4-6.

[2] = system: lung epithelial cell line LA-4; experiment: TGF-β-induced epithelial-to-mesenchymal transition (EMT) in LA-4 cells; assay type: cell-based, murine
Protocol: In Example 4, the murine lung epithelial cell line, LA-4, available from the American Type Culture Collection (ATCC; Manassas, Va.), was treated with TGF-β (5 ng/ml) to induce epithelial-to-mesenchymal transition (EMT), a marker for fibrosis (J Clin Invest. 119:1420-1428, 2009). TGF-β treated cells were treated with no or with increasing concentrations (0.01 μM, 0.05 μM, 0.1 μM, or 0.5 μM) of Compound C. Compound C, (6S,9S,9aS)—N-benzyl-6-(4-hydroxybenzyl)-2,9-dimethyl-4,7-dioxo-8-(quinolin-8-ylmethyl)octahydro-1H-pyrazino[2,1-c][1,2,4]triazine-1-carboxamide.

[3] = system: bleomycin-induced lung fibrosis; conditions: cited from earlier work
[4] = biological target: β-catenin/CBP interaction (Homo sapiens, UniProt Q92793); conditions: cited from earlier work
β-catenin/CBP interaction, sequence (Q92793 whole entry): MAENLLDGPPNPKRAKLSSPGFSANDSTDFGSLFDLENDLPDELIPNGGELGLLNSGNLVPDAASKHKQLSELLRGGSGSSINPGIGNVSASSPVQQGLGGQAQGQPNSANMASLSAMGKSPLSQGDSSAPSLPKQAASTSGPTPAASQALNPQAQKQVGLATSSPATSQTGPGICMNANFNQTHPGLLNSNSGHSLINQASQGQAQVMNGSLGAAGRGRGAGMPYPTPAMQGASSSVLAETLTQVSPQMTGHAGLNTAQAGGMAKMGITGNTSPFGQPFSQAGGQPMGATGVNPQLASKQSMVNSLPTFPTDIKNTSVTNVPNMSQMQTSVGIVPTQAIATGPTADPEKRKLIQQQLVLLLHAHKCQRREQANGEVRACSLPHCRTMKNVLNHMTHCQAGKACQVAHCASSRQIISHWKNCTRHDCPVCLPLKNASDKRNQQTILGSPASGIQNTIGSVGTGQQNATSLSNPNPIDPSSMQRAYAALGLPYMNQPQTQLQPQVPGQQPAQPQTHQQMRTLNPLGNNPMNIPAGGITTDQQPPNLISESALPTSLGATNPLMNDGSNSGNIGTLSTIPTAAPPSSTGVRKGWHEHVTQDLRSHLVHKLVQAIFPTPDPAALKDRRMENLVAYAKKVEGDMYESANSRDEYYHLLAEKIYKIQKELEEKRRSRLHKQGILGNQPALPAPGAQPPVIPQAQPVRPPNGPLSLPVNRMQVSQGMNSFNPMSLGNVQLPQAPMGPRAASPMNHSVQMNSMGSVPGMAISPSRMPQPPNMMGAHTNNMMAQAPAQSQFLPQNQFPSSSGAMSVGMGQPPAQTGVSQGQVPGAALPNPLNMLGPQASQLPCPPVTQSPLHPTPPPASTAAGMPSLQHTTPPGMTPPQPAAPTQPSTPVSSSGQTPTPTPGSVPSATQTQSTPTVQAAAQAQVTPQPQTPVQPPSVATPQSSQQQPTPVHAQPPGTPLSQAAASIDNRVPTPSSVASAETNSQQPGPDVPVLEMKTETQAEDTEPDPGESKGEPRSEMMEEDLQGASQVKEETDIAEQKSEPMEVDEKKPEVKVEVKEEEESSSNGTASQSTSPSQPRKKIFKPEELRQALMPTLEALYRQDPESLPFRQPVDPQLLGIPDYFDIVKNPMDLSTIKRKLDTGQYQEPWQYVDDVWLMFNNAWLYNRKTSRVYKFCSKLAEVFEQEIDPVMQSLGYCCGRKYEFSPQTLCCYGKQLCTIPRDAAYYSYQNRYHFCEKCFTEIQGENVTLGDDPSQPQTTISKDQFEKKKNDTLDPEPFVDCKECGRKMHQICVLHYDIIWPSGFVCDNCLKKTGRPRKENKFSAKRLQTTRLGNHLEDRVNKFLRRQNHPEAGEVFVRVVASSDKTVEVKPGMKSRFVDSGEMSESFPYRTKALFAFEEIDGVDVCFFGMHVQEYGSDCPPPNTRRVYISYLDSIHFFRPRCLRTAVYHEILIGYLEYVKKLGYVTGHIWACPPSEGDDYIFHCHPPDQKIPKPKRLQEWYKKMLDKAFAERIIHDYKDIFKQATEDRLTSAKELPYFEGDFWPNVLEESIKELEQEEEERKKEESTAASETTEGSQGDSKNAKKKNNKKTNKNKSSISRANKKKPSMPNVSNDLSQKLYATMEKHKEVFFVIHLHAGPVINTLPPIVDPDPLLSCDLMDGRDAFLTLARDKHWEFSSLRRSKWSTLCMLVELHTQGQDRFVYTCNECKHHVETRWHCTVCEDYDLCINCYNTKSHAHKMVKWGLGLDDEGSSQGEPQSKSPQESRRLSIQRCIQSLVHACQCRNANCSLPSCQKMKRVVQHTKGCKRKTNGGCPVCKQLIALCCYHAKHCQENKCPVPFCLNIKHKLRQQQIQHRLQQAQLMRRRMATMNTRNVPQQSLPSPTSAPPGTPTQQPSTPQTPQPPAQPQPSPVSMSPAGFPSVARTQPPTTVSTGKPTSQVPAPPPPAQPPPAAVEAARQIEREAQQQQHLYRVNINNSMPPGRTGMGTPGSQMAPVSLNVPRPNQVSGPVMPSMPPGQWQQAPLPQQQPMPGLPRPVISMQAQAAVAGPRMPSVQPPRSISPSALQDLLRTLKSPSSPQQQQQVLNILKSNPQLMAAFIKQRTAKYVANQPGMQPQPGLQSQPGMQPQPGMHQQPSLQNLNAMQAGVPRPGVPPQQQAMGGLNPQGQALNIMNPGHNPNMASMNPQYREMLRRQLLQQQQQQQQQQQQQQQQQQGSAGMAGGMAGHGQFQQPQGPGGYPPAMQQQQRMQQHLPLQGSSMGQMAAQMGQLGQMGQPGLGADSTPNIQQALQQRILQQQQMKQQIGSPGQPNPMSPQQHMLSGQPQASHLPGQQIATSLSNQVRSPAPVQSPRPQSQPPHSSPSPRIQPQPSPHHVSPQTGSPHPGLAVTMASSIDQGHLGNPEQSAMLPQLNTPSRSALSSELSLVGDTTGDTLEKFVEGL

SMILES	lung fibrosis by histological examination ([1]; Example 1, 5 mg/kg, days 14-28, FIG. 2C)	lung fibrosis (Ashcroft score) ([1]; Example 1, 5 mg/kg/day s.c. osmotic pump, days 15-28 (days 14-28), FIG. 1A, vs bleomycin alone)	collagen deposition (SIRCOL collagen assay, left lung) ([1]; Example 1, 5 mg/kg/day, days 15-28 (days 14-28), FIG. 1B, vs bleomycin alone)	antifibrotic effect, early (inflammatory) phase treatment ([1]; Example 2, 1 mg/kg/day, Days 1-14 (early), FIG. 3, vs no test compound)	antifibrotic effect, late (fibrotic) phase treatment ([1]; Example 2, 1 mg/kg/day, Days 15-28 (late), FIG. 3)	late phase treatment compared with treatment throughout the entire period ([1]; Example 2, 1 mg/kg/day, Days 15-28 vs Days 1-28 (whole), FIG. 3)	antifibrotic effect in six-week course of BLM-induced fibrosis [1]	α-SMA expression by fluorescent microscopy ([2]; TGF-β 5 ng/ml plus compound 0.01 μM, FIG. 6)	TGF-β-induced alpha smooth muscle actin (α-SMA) formation / EMT ([2]; TGF-β 5 ng/ml, increasing concentrations 0.01, 0.05, 0.1, 0.5 μM, FIG. 5)	bleomycin-induced lung fibrosis ([3]; 5 mg/kg per day, mice)	β-catenin signaling ([3]; 5 mg/kg per day, mice)	fibrosis, administration concurrent with bleomycin ([3]; concurrent administration)	established fibrosis, late administration ([3]; late administration)	survival, late administration ([3]; late administration)	selectivity β-catenin/CBP vs β-catenin/p300 interaction [4]
C[C@H]1[C@H]2N(C(=O)CN(C)N2C(=O)NCc2ccccc2)[C@@H](Cc2ccc(OP(=O)(O)O)cc2)C(=O)N1Cc1cccc2cccnc12 [Compound A, 4-(((6S,9S,9aS)-1-(benzylcarbamoyl)-2,9-dimethyl-4,7-dioxo-8-(quinolin-8-ylmethyl)octahydro-1H-pyrazino[2,1-c][1,2,4]triazin-6-yl)methyl)phenyl dihydrogen phosphate]	reduces lung fibrosis	reduces lung fibrosis	reduced	not significantly beneficial	significantly reduced lung fibrosis	equal to, or even superior to	has an antifibrotic effect	–	–	–	–	–	–	–	–
C[C@H]1[C@H]2N(C(=O)CN(C)N2C(=O)NCc2ccccc2)[C@@H](Cc2ccc(O)cc2)C(=O)N1Cc1cccc2cccnc12 [Compound C, (6S,9S,9aS)—N-benzyl-6-(4-hydroxybenzyl)-2,9-dimethyl-4,7-dioxo-8-(quinolin-8-ylmethyl)octahydro-1H-pyrazino[2,1-c][1,2,4]triazine-1-carboxamide]	–	–	–	–	–	–	–	decreased alpha smooth muscle actin (α-SMA) expression	inhibit TGF-β-induced alpha smooth muscle actin (α-SMA) formation	–	–	–	–	–	–
O=C1[C@H](Cc2ccc(O)cc2)N2C(=O)CCN(C(=O)NCc3ccccc3)[C@H]2CN1Cc1cccc2ccccc12 [ICG-001]	–	–	–	–	–	–	antifibrotic effect, unlike β-catenin inhibitor ICG-001	–	–	attenuates bleomycin-induced lung fibrosis	significantly inhibits β-catenin signaling	prevents fibrosis	reverse established fibrosis	significantly improve survival	selectively blocks the β-catenin/CBP interaction without interfering with the β-catenin/p300 interaction
